# Entries after “also recorded” stand apart in the source; their conditions may differ.
# Assays:
# [1] = test system: STING pathway; experiment: IFN-β mRNA production in RAW 264.7 cells by RT-qPCR; format: cell-based, murine; settings: for IFN-β mRNA production / IFN response: RAW 264.7, 1, 5, 10 μM CDN, 2, 4, 6 h; for time post transfection of highest IFN-β mRNA production: RAW 264.7, 1, 5 and 10 μM CDN, 2, 4 and 6 h tested; for order of IFN-β induction: RAW 264.7, RT-qPCR, FIG. 3
# Protocol: FIGS. 3A-3C provide IFN data. […] RAW 264.7 cells were transfected with 1, 5, 10 μM of c-di-GMP, c-di-^tzGMP, c-G^thGMP, c-di-G^thGMP and c-G^tzGMP, and incubated for 2, 4, 6 h before being lysed by TRIzol. RNA purification and RT-qPCR were conducted following the protocol described in the Experimental Section. FIG. 3B show IFN response after 2, 4, 6 h of incubation with 5 μM of CDNs. […] Two independent assays were performed in triplicates (n=2). Error bars indicate SD. See Yi et al, Tuning the Innante Immune Response to Cyclic Dinucleotides by Using Atomic Mutagenesis, ChemBioChem, Volume 21 (2020).
# As most synthetic c-di-GMP analogues activated IRF3, the inventors analyzed their dose and time dependency for inducing IFN-β mRNA production by using RT-qPCR. RAW 264.7 cells were transfected with 1, 5 and 10 μM of CDNs as described above and incubated for 2, 4 and 6 h. Total RNA was isolated and used for RT-qPCR. As shown in FIGS. 3A-3B, c-di-GMP induced the most IFN-β mRNA production 4 h post transfection, whereas the highest response was observed after 2 h for c-di-tzGMP, c-GthGMP, and c-GtzGMP.
# RT-qPCR. RAW 264.7 cells were plated on 48-well plates (2.5×10^5 cells per well) and transfected with CDN using the same method as above after 48 h of incubation at 37° C. Cells were then incubate with regular growth medium for designated time, and total RNA was isolated with TRIzol® reagent and purified with RNeasy mini kit (Qiagen) following the manufacturer's protocol. Following elution, RNA yields were evaluated using a Nanodrop spectrophotometer (Nanodrop technologies). RNA samples were converted to cDNA with SuperScript III First-Strand Synthesis kit (Invitrogen) with random hexamers following the manufacturer's protocol. Quantitative PCR (SYBR Green) analysis was performed in duplicates on an Applied Biosystems 7300 Real-time PCR system (Invitrogen). Transcription level of IFN-β gene of each sample was normalized to housekeeping gene TBP and then to untreated samples (UT) using the delta-delta CT method.
# [2] = target: T1, DncV (Vibrio cholerae serotype O1, UniProt Q9KVG7); experiment: DncV-mediated CDN synthesis kinetics monitored by HPLC; format: biochemical; design: made in house; host or cells: Escherichia coli BL21(DE3); settings: for k2/k3: product formation vs intermediate degradation; for k2 / k3 / k1: 500 μM NTP, DncV, 37° C., mean±SD; for k2: cyclization of intermediate to product; for k3: degradation of intermediate; for k1: first phosphodiester bond formation; for k1 derived from HPLC analysis: as quoted for comparison with kapp
# T1 sequence (Q9KVG7 whole entry): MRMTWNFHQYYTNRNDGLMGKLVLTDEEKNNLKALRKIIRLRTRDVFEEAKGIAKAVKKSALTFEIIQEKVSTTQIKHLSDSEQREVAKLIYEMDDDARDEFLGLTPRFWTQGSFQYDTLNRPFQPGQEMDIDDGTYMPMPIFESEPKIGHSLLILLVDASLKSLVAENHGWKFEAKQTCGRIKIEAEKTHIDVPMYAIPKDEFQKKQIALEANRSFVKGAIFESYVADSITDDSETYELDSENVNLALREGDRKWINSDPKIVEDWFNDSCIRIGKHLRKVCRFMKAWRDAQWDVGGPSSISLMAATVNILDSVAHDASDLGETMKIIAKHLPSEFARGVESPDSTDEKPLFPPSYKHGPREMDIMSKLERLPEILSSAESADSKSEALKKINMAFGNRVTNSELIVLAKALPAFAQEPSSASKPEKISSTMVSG
# From the text: DncV generates CDNs through a series of sequential reactions, which are thought to involve a release-and-rebound process of the intermediate. [7b,17] After the first 3′,5′-phosphodiester bond formation, the linear dinucleotide pppNpN is released and oppositely rebound to the enzyme, after which the second 3′,5′-phosphodiester linkage is made. [7b,16b,18] To ultimately apply and interpret real-time fluorescence measurements, a better understanding of the enzymatic conversion of GTP and its analogues into the corresponding CDNs is therefore required. The reaction time course was consequently analyzed, paying particular attention to the accumulation and consumption of intermediates. DncV was incubated with GTP, tzGTP and thGTP, and the reactions containing each of the corresponding substrates were quenched with calf intestinal alkaline phosphatase (CIAP) at designated time points. The relative concentrations of the starting material (S), uncyclized intermediate (I) and product (P) were then monitored by HPLC. […] Taking into account the unique release-and-rebound process of the uncyclized dinucleotide intermediate, [16b,20] the kinetics of the DncV-mediated CDN syntheses was therefore analyzed according to the model in Scheme 1a and the differential Equations (1)-(4), in which S represents the starting NTP, I1 and I2 respectively represent intermediates pppNpN and degraded intermediate pNpN (I=I1+I2), and P represents the product CDN. Papp (apparent product) stands for the sum of all the dinucleotide species, including linear ones and cyclized products.
# Differential Equations (1)-(4) d[S]/dt=−2k1[S]^2 (1) d[I1]/dt=k1[S]^2−[…] (2) d[P]/dt=k2[I3] (3) d[I2]/dt=k3[I1] (4)
# […] of the mixture was subjected to HPLC analysis after filtration. The reaction mixture was separated by Sepax Bio C-18 column (250×10 mm, 5 pmparticle size) with a gradient of 0.5%-25% of 10 mM TEAA, pH7 in Me0H in 20 min at 25° C. on an Agilent 1200 series HPLC system (Agilent Technologies).
# Data Analysis and curve fitting. […] The relative concentrations were plotted against time.
# [3] = target: T1, DncV; settings: pseudo-second order simulation, FL Model 2
# Protocol: The bacterial enzyme DncV was thus incubated with either GTP, ^thGTP, ^tzGTP or mixtures thereof under the same conditions as the HPLC-monitored reactions. Aliquots were treated with calf intestinal alkaline phosphatase (CIAP) at designated times, and emission spectra were taken after appropriate dilution.
# Unlike integrated chromatographic analyses, which can separately account for all individual species present, the observed fluorescence signal reflects the sum of all emissive species. To facilitate quantitative analyses of fluorescence data, a conversion factor (a) was introduced to the simulation of the fluorescence-monitored reaction kinetics. This factor bridges the integrated fluorescent spectrum and the concentration of a given chromophore at a given set of conditions and can be calculated from the integrated emission spectrum (FLint) of a given chromophore with known concentration ([C]) using Equation (5). […] To compare the fluorescence- and HPLC-monitored reaction kinetics, Equation (6) was used to correlate the recorded fluorescence spectrum with the concentrations of different species in the reaction mixture. As a first attempt, the k values extracted from the HPLC analysis were used to fit the fluorescence data (referred to as FL Model 1). […]
SMILES,"IFN-β mRNA production relative to c-di-GMP ([1]; RAW 264.7, 5 μM CDN, 2 h incubation)",IFN-β mRNA production / IFN response [1],time post transfection of highest IFN-β mRNA production [1] [h],order of IFN-β induction [1],k2/k3 [2],kapp (apparent kinetics rate constant) [3] [M⁻¹ s⁻¹],k2 [2],k2 ([2]; listed as c-di-thGMP),k3 [2],k3 ([2]; listed as c-di-thGMP),k1 [2],k1 ([2]; listed as c-di-thGMP),k1 derived from HPLC analysis [2] [M⁻¹ s⁻¹],k2 ([2]; listed as c-di-tzGMP),k3 ([2]; listed as c-di-tzGMP),k1 ([2]; listed as c-di-tzGMP)
Nc1nc2c([C@@H]3O[C@@H]4COP(=O)(O)O[C@H]5[C@@H](O)[C@H](n6cnc7c(=O)[nH]c(N)nc76)O[C@@H]5COP(=O)(O)O[C@H]4[C@H]3O)scc2c(=O)[nH]1 [c-G^thGMP],tenfold higher,highest potency; also recorded: earlier and stronger maximum IFN-β response compared to the native c-di-GMP; also recorded: strongest effect on IFN-β induction of all analogues tested; also recorded: faster and greater innate immune response relative to the native signal c-di-GMP,2,c-GthGMP>c-di-tzGMP>c-GtzGMP>c-di-GMP>c-di-thGMP,–,–,–,–,–,–,–,–,–,–,–,–
"Nc1nc2c(ncn2[C@@H]2O[C@@H]3COP(=O)(O)O[C@H]4[C@@H](O)[C@H](n5cnc6c(=O)[nH]c(N)nc65)O[C@@H]4COP(=O)(O)O[C@H]3[C@H]2O)c(=O)[nH]1 [c-di-GMP, reference compound]",–,–,4,c-GthGMP>c-di-tzGMP>c-GtzGMP>c-di-GMP>c-di-thGMP,116,–,–,–,–,–,–,–,–,–,–,–
Nc1nc2c([C@@H]3O[C@@H]4COP(=O)(O)O[C@H]5[C@@H](O)[C@H](c6scc7c(=O)[nH]c(N)nc67)O[C@@H]5COP(=O)(O)O[C@H]4[C@H]3O)scc2c(=O)[nH]1 [c-di-^thGMP],–,minimal; also recorded: essentially inactive,–,c-GthGMP>c-di-tzGMP>c-GtzGMP>c-di-GMP>c-di-thGMP,8.0,0.53 ± 0.05,(2.32 ± 0.05) × 10^−4 s^−1,(2.32±0.05)×10^−3 s^−1,(2.91 ± 0.01) × 10^−5 s^−1,(2.91±0.01)×10^−5 s^−1,(3.08 ± 0.03) × 10^−7 μM^−1s^−1,(3.08±0.03)×10^−7 μM^−1s^−1,0.31 ± 0.03,–,–,–
Nc1nc2c([C@@H]3O[C@@H]4COP(=O)(O)O[C@H]5[C@@H](O)[C@H](c6snc7c(=O)[nH]c(N)nc67)O[C@@H]5COP(=O)(O)O[C@H]4[C@H]3O)snc2c(=O)[nH]1 [c-di-^tzGMP],–,earlier and stronger maximum IFN-β response compared to the native c-di-GMP,2,c-GthGMP>c-di-tzGMP>c-GtzGMP>c-di-GMP>c-di-thGMP,26,1.57 ± 0.15,(3.4 ± 0.2) × 10^−3 s^−1,–,(1.3 ± 0.1) × 10^−4 s^−1,–,(1.26 ± 0.07) × 10^−6 μM^−1s^−1,–,1.26 ± 0.07,(3.4±0.2)×10^−3 s^−1,(1.3±0.1)×10^−4 s^−1,(1.26±0.07)×10^−6 μM^−1s^−1

# Source: US11702442B2, “Cyclic dinucleotide compounds as sting agonists” (The Regents of the University of California, priority 2019, dated 2023)
